Results reported in ChEMBL document CHEMBL5143740, “Discovery of Novel Phosphoinositide-3-Kinase α Inhibitors with High Selectivity, Excellent Bioavailability, and Long-Acting Efficacy for Gastric Cancer” (J Med Chem, 2022).
Active and inactive are the calls of the source. The rule behind the calls is not given here.

Experiments:
MGC-803 [1] = experiment: Antitumor activity against human MGC-803 cells xenografted in BALB/c nude mouse assessed as reduction in tumor volume at 30 mg/kg, po administered every day for 3 weeks by vernier caliper method; assay type: functional, organism-based
MGC-803 [2] = experiment: Inhibition of cell invasion in human MGC-803 cells at 2 to 8 uM incubated for 24 hrs by microscopic analysis; assay type: functional, cell-based; details: dose 2-8 µM
MGC-803 [3] = experiment: Induction of apoptosis in human MGC-803 cells assessed as necrotic cells at 8 uM incubated for 36 hrs by annexin V-FITC based flow cytometry analysis (reference value: […]); assay type: functional
MGC-803 [4] = experiment: Induction of apoptosis in human MGC-803 cells assessed as late apoptotic cells at 4 uM incubated for 36 hrs by annexin V-FITC based flow cytometry analysis (reference value: 2.61 %); assay type: functional
[5] = biological target: Phosphatidylinositol 4,5-bisphosphate 3-kinase catalytic subunit alpha isoform (Homo sapiens, UniProt P42336); experiment: Inhibition of PI3Kalpha (unknown origin) using PIP2 as substrate in presence of ATP measured after 1 hr by ADP-Glo assay
Chain of Phosphatidylinositol 4,5-bisphosphate 3-kinase catalytic subunit alpha isoform (P42336 whole entry, canonical isoform): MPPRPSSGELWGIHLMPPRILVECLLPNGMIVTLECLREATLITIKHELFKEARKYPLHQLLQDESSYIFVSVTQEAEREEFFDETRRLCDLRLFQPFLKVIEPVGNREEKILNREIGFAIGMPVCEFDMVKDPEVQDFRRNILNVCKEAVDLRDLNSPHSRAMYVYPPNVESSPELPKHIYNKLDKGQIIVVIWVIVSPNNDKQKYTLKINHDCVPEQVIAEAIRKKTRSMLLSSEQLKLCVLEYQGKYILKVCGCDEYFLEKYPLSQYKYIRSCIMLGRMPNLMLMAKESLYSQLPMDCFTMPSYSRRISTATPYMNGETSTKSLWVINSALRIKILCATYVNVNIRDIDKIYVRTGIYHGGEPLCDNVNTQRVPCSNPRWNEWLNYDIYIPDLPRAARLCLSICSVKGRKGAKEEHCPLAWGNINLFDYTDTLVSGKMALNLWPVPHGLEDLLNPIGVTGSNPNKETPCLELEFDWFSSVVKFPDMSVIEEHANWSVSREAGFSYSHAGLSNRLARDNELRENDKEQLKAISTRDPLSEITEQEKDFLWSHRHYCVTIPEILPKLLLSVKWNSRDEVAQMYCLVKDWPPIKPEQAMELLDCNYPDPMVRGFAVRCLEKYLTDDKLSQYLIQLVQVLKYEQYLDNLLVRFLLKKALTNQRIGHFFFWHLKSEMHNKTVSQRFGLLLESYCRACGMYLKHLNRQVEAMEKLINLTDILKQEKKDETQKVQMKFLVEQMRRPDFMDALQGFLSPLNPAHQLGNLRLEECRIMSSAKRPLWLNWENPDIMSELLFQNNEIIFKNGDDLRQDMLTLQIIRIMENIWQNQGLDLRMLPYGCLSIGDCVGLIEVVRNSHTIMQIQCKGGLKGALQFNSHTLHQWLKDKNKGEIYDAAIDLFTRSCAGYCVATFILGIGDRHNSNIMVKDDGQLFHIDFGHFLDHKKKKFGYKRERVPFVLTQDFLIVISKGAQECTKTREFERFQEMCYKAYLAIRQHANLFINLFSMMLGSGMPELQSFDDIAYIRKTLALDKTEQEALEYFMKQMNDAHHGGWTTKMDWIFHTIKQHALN

K562 = experiment: Antiproliferative activity against human K562 cells assessed as inhibition of cell growth incubated for 72 hrs by CCK8 assay; assay type: functional, cell-based; details: K562, 72 h
MGC-803 [6] = experiment: Downregulation of PI3Kalpha protein expression in human MG C-803 cells at 2 to 8 uM by Western blotting analysis; assay type: functional, cell-based; details: dose 2-8 µM
MGC-803 [7] = experiment: Inhibition of cell migration in human MGC-803 cells at 2 to 8 uM incubated for 24 hrs by crystal violet staining based transwell migration assay; assay type: functional; details: dose 2-8 µM
[8] = AUC (0 to infinitive) in Sprague-Dawley rat at 1 mg/kg, iv measured after 24 hrs; assay type: ADME, organism-based; design: time 24 hrs, dose 1 mg/kg, route iv; details: in vivo
MGC-803 [9] = experiment: Induction of apoptosis in human MGC-803 cells assessed as early apoptotic cells at 2 uM incubated for 36 hrs by annexin V-FITC based flow cytometry analysis (reference value: 2.49 %); assay type: functional
[10] = Half life in Sprague-Dawley rat at 10 mg/kg, po measured after 24 hrs; assay type: ADME, organism-based; details: in vivo
MGC-803 [11] = experiment: Inhibition of PI3K signalling pathway in human MGC-803 cells assessed as reduction in P70S6K phosphorylation at 2 to 8 uM by Western blotting analysis; assay type: cell-based; details: dose 2-8 µM
MGC-803 [12] = experiment: Induction of apoptosis in human MGC-803 cells assessed as viable cells at 4 uM incubated for 36 hrs by annexin V-FITC based flow cytometry analysis (reference value: 94.51 %); assay type: functional; details: read-out: Activity
[13] = biological target: T1, Phosphatidylinositol 4,5-bisphosphate 3-kinase catalytic subunit delta isoform (Homo sapiens, UniProt O00329); experiment: Inhibition of PI3Kdelta (unknown origin) in presence of [33P]-ATP incubated for 2 hrs by hotspot kinase assay
T1 sequence (O00329 whole entry): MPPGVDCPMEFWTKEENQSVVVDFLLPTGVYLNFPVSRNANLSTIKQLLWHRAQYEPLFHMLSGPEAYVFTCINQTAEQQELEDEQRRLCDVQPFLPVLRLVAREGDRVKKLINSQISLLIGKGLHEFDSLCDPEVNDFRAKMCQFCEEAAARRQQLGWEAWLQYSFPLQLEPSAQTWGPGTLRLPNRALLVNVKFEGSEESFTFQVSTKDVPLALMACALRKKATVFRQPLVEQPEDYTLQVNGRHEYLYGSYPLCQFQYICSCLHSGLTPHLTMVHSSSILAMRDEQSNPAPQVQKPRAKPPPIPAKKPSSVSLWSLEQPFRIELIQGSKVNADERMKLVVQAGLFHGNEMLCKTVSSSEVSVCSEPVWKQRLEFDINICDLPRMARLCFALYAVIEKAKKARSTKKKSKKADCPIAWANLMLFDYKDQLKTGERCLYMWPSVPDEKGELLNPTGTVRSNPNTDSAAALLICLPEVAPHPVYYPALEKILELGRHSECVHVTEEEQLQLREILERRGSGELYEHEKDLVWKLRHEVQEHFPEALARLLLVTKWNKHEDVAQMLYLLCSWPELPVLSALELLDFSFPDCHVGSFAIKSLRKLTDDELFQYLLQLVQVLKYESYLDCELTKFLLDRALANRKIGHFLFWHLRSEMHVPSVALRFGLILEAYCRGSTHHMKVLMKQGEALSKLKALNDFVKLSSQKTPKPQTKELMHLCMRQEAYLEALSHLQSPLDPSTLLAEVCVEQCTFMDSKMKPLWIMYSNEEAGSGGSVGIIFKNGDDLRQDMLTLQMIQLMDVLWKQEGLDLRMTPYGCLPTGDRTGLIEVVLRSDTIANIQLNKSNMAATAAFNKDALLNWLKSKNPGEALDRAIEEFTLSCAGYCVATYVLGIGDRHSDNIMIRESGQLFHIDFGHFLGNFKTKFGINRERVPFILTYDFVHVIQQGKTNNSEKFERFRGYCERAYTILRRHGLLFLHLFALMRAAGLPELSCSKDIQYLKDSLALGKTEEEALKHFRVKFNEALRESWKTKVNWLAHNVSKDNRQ

MGC-803 [14] = experiment: Induction of apoptosis in human MGC-803 cells assessed as viable cells at 2 uM incubated for 36 hrs by annexin V-FITC based flow cytometry analysis (reference value: 94.51 %); assay type: functional; details: read-out: Activity
MGC-803 [15] = experiment: Antiproliferative activity against human MGC-803 cells assessed as inhibition of cell growth incubated for 72 hrs by CCK8 assay; assay type: functional, cell-based; details: MGC-803, 72 h
MGC-803 [16] = experiment: Antitumor activity against human MGC-803 cells xenografted in BALB/c nude mouse assessed as reduction in tumor volume at 30 mg/kg, po administered every day for 3 weeks in presence of taxol by vernier caliper method; assay type: functional, organism-based
MGC-803 [17] = experiment: Induction of apoptosis in human MGC-803 cells assessed as late apoptotic cells at 8 uM incubated for 36 hrs by annexin V-FITC based flow cytometry analysis (reference value: 2.61 %); assay type: functional
PC-3 = experiment: Antiproliferative activity against human PC-3 cells assessed as inhibition of cell growth incubated for 72 hrs by CCK8 assay; assay type: functional, cell-based; details: PC-3, 72 h
[18] = Cmax in Sprague-Dawley rat at 10 mg/kg, po measured after 24 hrs; assay type: ADME, organism-based; design: time 24 hrs, dose 10 mg/kg, route po; details: in vivo
MGC-803 [19] = experiment: Induction of apoptosis in human MGC-803 cells assessed as viable cells at 8 uM incubated for 36 hrs by annexin V-FITC based flow cytometry analysis (reference value: 94.51 %); assay type: functional; details: read-out: Activity
HepG2 = experiment: Antiproliferative activity against human HepG2 cells assessed as inhibition of cell growth incubated for 72 hrs by CCK8 assay; assay type: functional, cell-based; details: HepG2, 72 h
SK-OV-3 = experiment: Antiproliferative activity against human SK-OV-3 cells assessed as inhibition of cell growth incubated for 72 hrs by CCK8 assay; assay type: functional, cell-based; details: SK-OV-3, 72 h
[20] = Oral bioavailability in Sprague-Dawley rat at 10 mg/kg measured after 24 hrs; assay type: ADME, organism-based; details: in vivo
[21] = AUC (0 to t) in Sprague-Dawley rat at 1 mg/kg, iv measured after 24 hrs; assay type: ADME, organism-based; design: time 24 hrs, dose 1 mg/kg, route iv; details: in vivo
[22] = Cmax in Sprague-Dawley rat at 1 mg/kg, iv measured after 24 hrs; assay type: ADME, organism-based; design: time 24 hrs, dose 1 mg/kg, route iv; details: in vivo
MGC-803 [23] = experiment: Antimetastatic activity against human MGC-803 cells assessed as […] of E-cadherin expression in at 2 to 8 uM by Western blot analysis; assay type: functional, cell-based; details: dose 2-8 µM

Nc1nc2cc(-c3nc(N4CCOCC4)nc(N4CCOCC4)n3)ccc2o1
Activity (MGC-803 [1]): Active
inhibition (MGC-803 [2]): Active
Activity (MGC-803 [3]): 1.08%
Activity (MGC-803 [4]): 5.01%
IC50 [5]: 0.0044 µM
IC50 (K562): 0.43 µM
inhibition (MGC-803 [6]): Active
inhibition (MGC-803 [7]): Active
AUC(0-inf) [8]: 2920 ng·h/mL
Activity (MGC-803 [9]): 7.52%
half-life [10]: > 10 h
inhibition (MGC-803 [11]): Active
viability at 4 µM (MGC-803 [12]): 62.6%
IC50 [13]: 0.153 µM
viability at 2 µM (MGC-803 [14]): 87%
IC50 (MGC-803 [15]): 0.43 µM
Activity (MGC-803 [16]): Active
Activity (MGC-803 [17]): 3.81%
IC50 (PC-3): 0.43 µM
Cmax [18]: 2260 ng/mL
viability at 8 µM (MGC-803 [19]): 37.2%
IC50 (HepG2): 0.43 µM
IC50 (SK-OV-3): 0.43 µM
bioavailability [20]: 130%
AUC(0-t) at 24 h [21]: 2240 ng·h/mL
Cmax [22]: 455 ng/mL
inhibition (MGC-803 [23]): Active
